Experimental data as given in the supplement of paper PMC8671470.

Key:
Details in all cases: 72 h
NOMO-1 [1] = system: NOMO-1
Summary of the method: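 Each of fifteen myeloid leukaemia cell lines was seeded in RPMI 1640 at a density titrated to its linear growth range. The cells were incubated for 72 h at 37 °C and 5% CO2 with compounds at five tenfold doses from 1 to 10,000 nM, in duplicate. After ATP luminescence was normalised to vehicle and to a positive control at 10 µM, four-parameter log-logistic curves were fitted. These curves gave the IC50.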

HL-60 [2] = assay: cell viability (% survival relative to DMSO control); higher = less cytotoxic
Summary of the method: (§1)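 Four-parameter log-logistic fits in drc and PharmacoGx supplied area under the curve where it is given. Underlying viability came from CellTiter-Glo, normalised to DMSO and proteasome-inhibitor wells, with the proteasome inhibitor at 10 μM. HL-60 cells in RPMI 1640 plus 10% FBS had been rescreened against the full library at five tenfold concentrations of 1–10,000 nM, in duplicate on 384-well plates, with DMSO or 100 nM of one of three metabolic inhibitors, for 72 h at 37 °C, 5% CO2.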

BV-173 = assay: cell viability (% survival relative to DMSO control, bortezomib = 0%); higher = less cytotoxic
Summary of the method: (§2)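 Seeding density for each of the 10 AML and 5 CML cell lines was titrated to the linear growth range. Cells went into 384-well plates pre-printed in duplicate with compounds at 1, 10, 100, 1000 or 10000 nM and were held for 72 h at 37 °C with 5% CO2. CellTiter-Glo luminescence then provided the readout. Percent survival is expressed relative to vehicle at 100% and a 10 µM positive control at 0%, averaged over duplicates.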

HEL = assay: as above
Summary of the method: as §2

HL-60 [3] = assay: as above
Summary of the method: as §2

K-562 = assay: as above
Summary of the method: as §2

KCL-22 = assay: as above
Summary of the method: as §2

KG-1 = assay: as above
Summary of the method: as §2

KU-812 = assay: as above
Summary of the method: as §2

LAMA-84 = assay: as above
Summary of the method: as §2

ML-2 = assay: as above
Summary of the method: as §2

MOLM-13 = assay: as above
Summary of the method: as §2

MV4-11 = assay: as above
Summary of the method: as §2

Mono-Mac-6 = assay: as above
Summary of the method: as §2

NOMO-1 [4] = assay: as above
Summary of the method: as §2

SHI-1 = assay: as above
Summary of the method: as §2

THP-1 = assay: as above
Summary of the method: as §2

HL-60 [5] = assay: area under dose-response curve (viability, 1 nM-10 uM) (fraction (0-1)); higher = more sensitive
Summary of the method: as §1

C#CCN[C@@H]1CCc2ccccc21 [Rasagiline]
Details	IC50 (cell viability) [µM]
NOMO-1 [1]	> 10

cell viability [%], HL-60 [2]
Details	0.001 µM	0.01 µM	0.1 µM	1 µM	10 µM
co-treatment: AZD3965 100 nM	102	96.6	100	97.1	99.9
co-treatment: DMSO vehicle	101	102	102	100.1	95.4
co-treatment: GSK2194069 100 nM	105	107	100	102	99.9
co-treatment: pictilisib 100 nM	89.6	87.5	103	95.6	102

Details	area under dose-response curve, co-treatment: AZD3965 100 nM	area under dose-response curve, co-treatment: DMSO vehicle	area under dose-response curve, co-treatment: GSK2194069 100 nM	area under dose-response curve, co-treatment: pictilisib 100 nM	cell viability, 1 nM [%]	cell viability, 10 nM [%]	cell viability, 100 nM [%]	cell viability, 1000 nM [%]	cell viability, 10000 nM [%]
BV-173	–	–	–	–	92.1	104	111	93.6	92.4
HEL	–	–	–	–	118	115	117	90.1	135
HL-60 [3]	–	–	–	–	95.8	86.6	96.9	76.2	135
HL-60 [5]	< 0.0301	< 0.0301	< 0.0301	< 0.0301	–	–	–	–	–
K-562	–	–	–	–	103	100	100	87.5	84.2
KCL-22	–	–	–	–	80.3	108	98.4	89.7	135
KG-1	–	–	–	–	88.3	116	98.5	89.8	114
KU-812	–	–	–	–	94.1	104	97.1	90.3	111
LAMA-84	–	–	–	–	98.2	106	106	91.8	97.2
ML-2	–	–	–	–	89.9	104	105	87.2	104
MOLM-13	–	–	–	–	93.9	109	111	95.9	111
MV4-11	–	–	–	–	97.8	104	108	91.7	96
Mono-Mac-6	–	–	–	–	92.4	105	101	80.9	100
NOMO-1 [4]	–	–	–	–	95.2	103	103	93.2	102
SHI-1	–	–	–	–	97.8	103	100	95.3	117
THP-1	–	–	–	–	102	102	103	96	101

Cc1nc(-c2ccc(OCC(C)C)c(C#N)c2)sc1C(=O)O [Febuxostat]
Details	IC50 (cell viability) [µM]
NOMO-1 [1]	> 10

cell viability [%], HL-60 [2]
Details	0.001 µM	0.01 µM	0.1 µM	1 µM	10 µM
co-treatment: AZD3965 100 nM	96.8	104	104	98.3	98.16
co-treatment: DMSO vehicle	96.5	99.3	103	95.6	104.8
co-treatment: GSK2194069 100 nM	99.9	93.2	94.47	95.2	98.7
co-treatment: pictilisib 100 nM	98.2	100	107	95.4	96

Details	area under dose-response curve, co-treatment: AZD3965 100 nM	area under dose-response curve, co-treatment: DMSO vehicle	area under dose-response curve, co-treatment: GSK2194069 100 nM	area under dose-response curve, co-treatment: pictilisib 100 nM	cell viability, 1 nM [%]	cell viability, 10 nM [%]	cell viability, 100 nM [%]	cell viability, 1000 nM [%]	cell viability, 10000 nM [%]
BV-173	–	–	–	–	103	101	79.9	99.7	82.6
HEL	–	–	–	–	97	97.8	106	105	84.5
HL-60 [3]	–	–	–	–	103	85.2	114	91.3	99.3
HL-60 [5]	0.0351	< 0.0301	< 0.0301	0.0462	–	–	–	–	–
K-562	–	–	–	–	100	91.3	84.2	113	87.7
KCL-22	–	–	–	–	92.5	103	98	104	80.1
KG-1	–	–	–	–	102	97.5	103	94.6	90.4
KU-812	–	–	–	–	101	97.3	94	98.4	83.9
LAMA-84	–	–	–	–	102	95.7	92.4	105	101
ML-2	–	–	–	–	94	96	100	90.2	86.8
MOLM-13	–	–	–	–	90.6	102	141	103	94.9
MV4-11	–	–	–	–	88.2	104	99.1	105	116
Mono-Mac-6	–	–	–	–	91.7	102	99	92.9	92.7
NOMO-1 [4]	–	–	–	–	96.3	97.7	98.5	99.6	93.1
SHI-1	–	–	–	–	87	97.7	99	99.4	93.8
THP-1	–	–	–	–	102	92.4	95.1	99.6	93.6
